Test results from patent US9284310B2, “Inhibitors of cytomegalovirus” (Boehringer Ingelheim International GmbH, priority 2012, dated 2016).

Legend:
HCMV AD169 virus [1] = assay: HCMV AD169 qPCR 96-Well Assay (Example C); type: cell-based; settings: Human betaherpesvirus 5, AD169, MRC5, 72 h; qPCR of viral DNA, MRC-5 cells, 3 days
Protocol: The hCMV quantitative PCR (qPCR) assay evaluates the ability of a compound to inhibit, directly or indirectly, the replication of hCMV viral DNA during the first 72 h following the infection. Compounds that inhibit either entry or the hCMV polymerase are active in this assay. Compounds are tested in the qPCR assay in 96-well plates, using a 9-point dose-response with 8 compounds for each 96-well plate. The assay was adapted from the method described by Schnepf et al., Rapid determination of antiviral drug susceptibility of human cytomegalovirus by real-time PCR, Antiviral Research 81 (2009) 64-67.
Final Concentrations: • 10 mM Tris-HCl pH8.0 • 50 mM KCl • 2 mM MgCl2 • 0.45% Tween20 • 0.45% Nonidet P40
Serial dilutions of the DMSO stock compound solution are performed using DMSO in columns 2-10. DMSO alone is present in columns 1 and 11. Column 12 remains empty. Diluted compounds are further diluted with DMEM 5% FBS cell culture medium.
To perform the assay, 25 μL of inhibitor dilutions freshly prepared is added to the assay plate containing 50 μL of MRC-5 cells plated the day before (30000 cells per well). In a 9 point dose-response, column 1 contains mock infected cells and serves at negative control, with the appropriate concentration of DMSO, columns 2 to 10 contain compound dilutions and column 11 contains infected cells, with the appropriate concentration of DMSO and serves as the positive control. Column 12 serves for the standard curve in the qPCR process. Twenty-five μL of virus diluted in DMEM 5% FBS medium (to infect at MOI=0.05) is added to columns 2-11 and only D-MEM 5% FBS medium to uninfected control (column 1) for a final DMSO concentration of 0.6%. Incubate plates at 37° C. in 5% CO2 incubator for 3 days. Whole cell lysates are then obtained by adding 100 μL of Cell lysis buffer to each well including freshly added Proteinase K at a ratio of 1:5 (i.e. 200 μL Proteinase K:1000 μL Cell Lysis buffer) and incubating the assay plate at 56° C. for 1 h. Plates are centrifuged at 1300 rpm for 2 minutes to remove any condensation before proceeding with the qPCR.
The cell lysate is carefully pipetted up and down to mix well and diluted 1:40 in H2O to give a final dilution of 1:80 relative to the 100 μL of lysis buffer that Is added to the cells. 5 μL of diluted lysate is used for the qPCR reaction. An incubation of 5 minutes at 95° C. in a PCR machine is required to inactivate the Proteinase K. The cell lysates can be stored at −20° C. or used to perform qPCR immediately.
A 81 bp fragment of US17 gene from AD169 is amplified by PCR using primers qHCMV7 and qHCMV8. The PCR product is cloned into pCR4 TOPO vector (Invitrogen) and a clone harboring the insert is selected. A mitochondrial DNA is also added to normalize the HCMV copy number. Serial dilutions of the US17 plasmid and mitochondrial DNA are performed in heat-inactivated lysis buffer at the same dilution as the cell lysates (1:80). Usually, a standard curve ranging from 10E6 to 10E2 copies (per well) is suitable.
A typical qPCR reaction consists of the following:
A qPCR cycle consists of an initial denaturation of DNA and activation of the Taq enzyme at 95° C. for 10 min followed by 45 cycles of 15 seconds at 95° C. and 1 min at 60° C. Fluorescence is measured at each cycle, following the elongation step at 60° C. The reaction, data acquisition and analysis are performed using AppliedBiosystems 7500 Real time PCR system or other suitable real-time PCR system.

HCMV AD169 virus [2] = assay: HCMV AD169 CPE Assay (Example A); type: cell-based; settings: Human betaherpesvirus 5, AD169, MRC5, 216 h, MRC-5 cells, 9 days, MTS readout
Protocol: This assay format is a CPE (Cytopathic effect)-based assay that determines the ability of compounds to protect cells against infection with a dye reduction assay (MTS of CellTiter 96® AQueous Non-Radioactive Cell Proliferation Assay from Promega). The conversion of MTS into aqueous, soluble formazan is performed by dehydrogenase enzymes found in metabolically active cells. The quantity of formazan product determined by absorbance at 490 nm is directly proportional to the number of living cells in culture.
(§1) Serial dilutions of the DMSO stock compound solution are performed using DMSO in columns 2-11 and 14-23. DMSO alone is present in columns 1, 12, 13 and 24. Four μL of the DMSO serial dilutions is obtained and diluted using […] of D-MEM 5% FBS culture medium to obtain 4% DMSO (7×).
To perform the assay, 10 µL of the freshly prepared 4% DMSO serial dilution plate is added to the assay plate containing 40 μL of MRC-5 cells plated the day before (10000 cells per well). Twenty μL of diluted virus is added to columns 2-12 and 14-24 and only D-MEM 5% FBS medium to uninfected control (columns 1 and 13) for a final DMSO concentration of 0.6%.
The virus dilution is based on the amount of virus required to obtain a Signal-to-Background of 3-4 (generally between 0.1 and 1 μL of virus stock per well or MOI=0.05). The assay plates are incubated at 37° C. with 5% CO2 for 9 days in order to obtain 100% CPE in infected control without compound (columns 12 and 24). Ten μL of freshly mixed room temperature MTS/PMS (1:20 v/v) is added and the plates are incubated at 37° C. with 5% CO2 for 4-5 h (until signal saturation at 2.3 in the 100% CPE control). The plates are sealed with TopSeal for biosafety and read on the Envision plate reader (Perkin-Elmer) or equivalent at OD 492 nm.

[3] = test system: HCMV AD169-Bac-Luc2 US2-US6 clone #26 virus; assay: HCMV AD169-Bac Luciferase Assay (Example B); type: cell-based, Human Cytomegalovirus; settings: Human betaherpesvirus 5, AD169, MRC5, 72 h, read-out: EC50 Example B
Text: This assay format is a luciferase reporter-based assay that determines the ability of compounds to inhibit the infection by detecting a luciferase signal decrease following the addition of BIGlo substrate (preparation indicated below) directly in the culture media. Mono-oxygenation of luciferin is catalyzed by luciferase in the presence of Mg2+, ATP and molecular oxygen. The generation of oxyluciferin is a luminescent reaction that can be detected with the proper platereader. Human Cytomegalovirus AD169-Bac is obtained from Dr. Thomas Shenk at Princeton University (reference paper Yu et al. 2002—J. Virol. 76 (5):2316-2328, herein incorpoarated by reference) and modified by recombineering to introduce a humanized firefly luciferase gene (Luc2) at the US2-US6 position in the HCMV genome. The virus is expanded in MRC-5 cells.
as §1
To perform the assay, 7 μL of the freshly prepared 4% DMSO serial dilution plate is added to the assay plate containing […] of MRC-5 cells plated the day before (10000 cells per well). Seventeen μL of diluted virus is added to columns 2-12 and 14-24 and only D-MEM 5% FBS medium to uninfected control (columns 1 and 13) for a final DMSO concentration of 0.6%. The virus dilution is based on the amount of virus required to obtain the highest luciferase signal possible without CPE (generally between 0.05 and 1 μL of virus stock per well or MOI=0.02). The assay plates are incubated at 37° C. with 5% CO2 for 3 days. Fifteen μL of room temperature BIGlo buffer is added to room temperature assay plates also incubated at room temperature for 15 minutes. The plates are sealed with TopSeal for biosafety and the luminescence signal is read on the TopCount plate reader (Perkin-Elmer) or equivalent.

| SMILES | EC50 (HCMV AD169 virus [1]) | EC50 (HCMV AD169 virus [2]) | EC50 [3] |
| --- | --- | --- | --- |
| O=C(Nc1ccn(-c2cccc(-c3cccc(Cl)c3)n2)c(=O)c1)c1cscn1 [Compound 1129] | 145 nM |  |  |
| O=C(Nc1ccc(-c2cnc(-c3cccc(C(F)(F)F)c3)[nH]2)cn1)c1cscn1 [Compound 1052] | 1800 nM | 4200 nM | 450 nM |
| O=C(Nc1ccc(-c2cnc(NC(=O)C3(c4cccc(Cl)c4)CCC3)[nH]2)cc1)c1cscn1 [Compound 1004] |  | 98 nM | 7 nM |
| O=C(Nc1ccc(-c2nnc(-c3cccc(Cl)c3)[nH]2)cc1)c1csnn1 [Compound 1133] |  | 2050 nM |  |
| CC(O)(c1cccc(C(F)(F)F)c1)c1nc(-n2ccc(NC(=O)c3cscn3)cc2=O)c[nH]1 (centres unmarked) [Compound 1114] | 596 nM |  | 150 nM |
| CC(c1cccc(C(F)(F)F)c1)c1nc(-n2ccc(NC(=O)c3cscn3)cc2=O)c[nH]1 (centres unmarked) [Compound 1116] | 160 nM |  | 27 nM |
| C#CCn1cc(-c2ccc(NC(=O)c3cscn3)cc2)nc1-c1cccc(C(F)(F)F)c1 [Compound 1098] |  |  | 100 nM |
| O=C(Nc1ccc(-c2nc(-c3cccc(Cl)c3)nn2CC(O)CO)cc1)c1cscn1 (centres unmarked) [Compound 1121] | 275 nM |  | 63 nM |
| O=C(Nc1ccc(-c2cnc(-c3cccc(C(F)(F)F)c3)[nH]2)cc1)c1cocn1 [Compound 1143] |  | 1220 nM | 245 nM |
| CC(O)(c1cccc(C(F)(F)F)c1)c1nc(-c2ccc(NC(=O)c3cscn3)cn2)cn1CCCO (centres unmarked) [Compound 1113] | 2100 nM |  | 620 nM |
| O=C(Nc1ccc(-c2cnc(-c3cc(C(F)(F)F)cc(C(F)(F)F)c3)[nH]2)cc1)c1cscn1 [Compound 1016] |  | 135 nM | 35 nM |
| O=C(Nc1ccc(-c2ncc(-c3cccc(Cl)c3)[nH]2)cn1)c1cscn1 [Compound 1059] |  |  | 425 nM |
| O=C(Nc1ccc(-c2ncc(-c3cccc(C(F)(F)F)c3)[nH]2)cc1)c1csnn1 [Compound 1139] |  | 260 nM | 111 nM |
| Cc1cccc(-c2nnc(-c3ccc(NC(=O)c4cscn4)cc3)[nH]2)c1 [Compound 1070] |  | 510 nM | 93 nM |
| CC(c1cccc(C(F)(F)F)c1)c1nc(-c2ccc(NC(=O)c3cscn3)cn2)cn1CCCO (centres unmarked) [Compound 1111] | 665 nM |  | 1260 nM |
| O=C(Nc1ccn(-c2cccc(Oc3cccc(Cl)c3)n2)c(=O)c1)c1cscn1 [Compound 1120] |  |  | 92 nM |
| CC(O)(c1cccc(C(F)(F)F)c1)c1nc(-c2ccc(NC(=O)c3cscn3)cn2)cn1CCCOCc1ccccc1 (centres unmarked) [Compound 1115] | 1160 nM |  | 535 nM |

| SMILES | EC50 (HCMV AD169 virus [1]) | EC50 (HCMV AD169 virus [2]) | EC50 [3] |
| --- | --- | --- | --- |
| O=C(O)CCn1nc(-c2cccc(Cl)c2)nc1-c1ccc(NC(=O)c2cscn2)cc1 [Compound 1041] |  | 4100 nM | 645 nM |
| CC(O)(c1cccc(C(F)(F)F)c1)c1nc(-c2ccc(NC(=O)c3cscn3)cn2)c[nH]1 (centres unmarked) [Compound 1092] | 620 nM |  | 203 nM |
| Cc1c(Cl)cccc1-c1cn(C)c(-c2ccc(NC(=O)c3cscn3)nc2)n1 [Compound 1103] | 5800 nM |  | 1170 nM |
| CC(O)(c1cccc(C(F)(F)F)c1)c1nc(-n2ccc(NC(=O)c3cscn3)cc2=O)cn1CCCOCc1ccccc1 (centres unmarked) [Compound 1118] | 970 nM |  | 460 nM |
| Cn1c(-c2ccc(NC(=O)c3cscn3)cc2)cnc1-c1cccc(C(F)(F)F)c1 [Compound 1096] |  |  | 665 nM |
| CC(O)(c1cccc(C(F)(F)F)c1)c1nc(-n2ccc(NC(=O)c3cscn3)cc2=O)cn1CCCO (centres unmarked) [Compound 1119] | 2050 nM |  | 770 nM |
| CC(O)(c1cccc(C(F)(F)F)c1)c1cccc(-n2ccc(NC(=O)c3cscn3)cc2=O)n1 (centres unmarked) [Compound 1130] | 375 nM |  |  |
| O=C(Nc1ccc(-c2nc(-c3cccc(C(F)(F)F)c3)nn2CCCN2CCOCC2)cc1)c1cscn1 [Compound 1077] |  | 903 nM | 180 nM |
| O=C(Nc1ccc(-c2ncc(-c3cccc(Cl)c3)[nH]2)cc1)c1cscn1 [Compound 1045] |  | 345 nM | 66 nM |
| O=C(Nc1ccc(-c2cccc(-c3cccc(Cl)c3)n2)cc1)c1cocn1 [Compound 1038] |  | 3100 nM | 1190 nM |
| O=C(Nc1ccc(-c2nc(-c3cccc(C(F)(F)F)c3)nn2CCCO)cc1)c1cscn1 [Compound 1034] |  | 275 nM | 59 nM |
| CC(c1cccc(Cl)c1)c1ncc(-c2ccc(NC(=O)c3cscn3)cc2)[nH]1 (centres unmarked) [Compound 1086] |  | 355 nM | 118 nM |
| O=C(Nc1ccn(-c2nnc(-c3cccc(Cl)c3)[nH]2)c(=O)c1)c1cscn1 [Compound 1117] | 3200 nM |  | 1450 nM |
| Cn1cc(-c2cccc(C(F)(F)F)c2)nc1-c1ccc(NC(=O)c2cscn2)cc1 [Compound 1097] |  | 280 nM | 60 nM |
| CC(c1cccc(C(F)(F)F)c1)c1nc(-c2ccc(NC(=O)c3cscn3)cn2)c[nH]1 (centres unmarked) [Compound 1087] |  |  | 87 nM |
| NC(=O)CCn1nc(-c2cccc(Cl)c2)nc1-c1ccc(NC(=O)c2cscn2)cc1 [Compound 1109] | 455 nM |  | 185 nM |
